Data on three compounds can be found in patent US9458113B2 (Boehringer Ingelheim International GmbH, priority 2014, dated 2016).

The structures appear in SMILES notation. Values after ≈ are worked out from the molar mass of the structure shown.

A short description of data set [1]: Aqueous solubility (High Throughput Method). Conditions: McIlvaine buffer pH 6.8 with 2.5% DMSO, kinetic from dmso stock, McIlvaine buffer pH 6.8, 2.5% DMSO, 24 h shaking. It is filed as physicochemical. How it is done:
Assay for Determination of Aqueous Solubility (“High Throughput Method”)
Starting from a […] DMSO stock solution, aliquots are diluted with acetonitrile/water (1/1) and McIlvaine buffer pH 6.8, respectively. After 24 h of shaking, the solutions or suspensions are filtered and analyzed by LC-UV. The amount dissolved in buffer is compared to the amount dissolved in the acetonitrile/water (1/1) solution. Solubility is measured from 0.001 to 0.125 mg/ml at a DMSO concentration of 2.5%. If more than 90% of the compound is dissolved in buffer, the value is marked with “>”.

Data set [2] has as its system human hepatocytes. The data set can be described thus: Metabolic stability with human hepatocytes. In kind it is in vitro ADME. Conditions: 1 μM test compound, well stirred model. As for the experimental part: Assay for the Determination of Metabolic Stability with Human Hepatocytes
The metabolic degradation of the test compound is assayed in a human hepatocyte suspension. Human hepatocytes (typically cryopreserved) are incubated in an appropriate buffer system (e.g. Dulbecco's modified eagle medium plus 3.5 μg glucagon/500 mL, 2.5 mg insulin/500 mL and 3.75 mg/500 mL hydrocortison) containing 5% species serum. Following a (typically) […] preincubation in an incubator (37° C., 10% CO2), 5 μl of test compound solution (80 μM; from […] stock solution in DMSO diluted 1:25 with medium) are added into 395 μl hepatocyte suspension (cell density in the range 0.25-5*10^6 cells/mL, typically 1*10^6 cells/mL; final concentration of test compound 1 μM, final DMSO concentration 0.05%). The cells are incubated for six hours (incubator, orbital shaker) and samples (25 μl) are taken at 0, 0.5, 1, 2, 4 and 6 hours. Samples are transferred into acetonitrile and pelleted by centrifugation (5 min) The supernatant is transferred to a new 96-deepwell plate, evaporated under nitrogen and resuspended. The decline of parent compound is analyzed by LC-MS/MS.
The intrinsic clearance CL_[…] is calculated as follows: CL_[…]=Dose/AUC=(C0/CD)/(AUD+clast/k)*1,000/60
(C0: initial concentration in the incubation [μM], CD: cell density of vital cells [10^6 cells/mL], AUD: area under the data [μM*h], clast: concentration of last data point [μM], k: slope of the regression line for parent decline [h^−1])
The calculated in vitro hepatic intrinsic clearance Qh can be scaled up to the intrinsic in vivo hepatic clearance and used to predict hepatic in vivo blood clearance (CL) by the use of a liver model (well stirred model): CL_[…]_INVIVO [ml/min/kg]=(CL_[…] [μL/min/10^6 cells]*hepatocellularity [10^6 cells/g liver]*liver factor [g/kg bodyweight])/1,000 CL [ml/min/kg]=CL_[…]_INVIVO [ml/min/kg]*hepatic blood flow [ml/min/kg]/(CL_[…]_INVIVO [ml/min/kg]+hepatic blood flow [ml/min/kg]) Qh [%]=CL [ml/min/kg]/hepatic blood flow [ml/min/kg])
(Hepatocellularity, human: 120*10^6 cells/g liver; liver factor, human: 25.7 g/kg bodyweight; blood flow, human: 21 ml/(min*kg))
The calculated in-vitro hepatic intrinsic clearance values of selected compounds in the metabolic stability assay with human hepatocytes described above are listed in Table 15.

For orientation: solubility means the concentration that dissolves in the medium under given conditions. Low readings indicate a poorly soluble substance, high ones a readily soluble substance.

`CN1C(=O)N(c2cccc(C(F)(F)F)c2)C2=C(C(=O)CC2)[C@H]1c1ccc(C#N)cc1-c1ccc(=O)n(C)c1` [Example 23, 4-[(R)-3-Methyl-2,5-dioxo-1-(3-trifluoromethyl-phenyl)-2,3,4,5,6,7-hexahydro-1H-cyclopentapyrimidin-4-yl]-3-(1-methyl-6-oxo-1,6-dihydro-pyridin-3-yl)-benzonitrile] gave a solubility at 24 h in data set [1] of 53 µg/mL (≈ 102 µM). Further, the Qh in data set [2] stood at 13%.

In the case of `CN1C(=O)N(c2cccc(C(F)(F)F)c2)C2=C(C(=O)CC2)[C@H]1c1ccc(C#N)cc1C(N)=O` [Example 2, 5-Cyano-2-[(R)-3-methyl-2,5-dioxo-1-(3-trifluoromethyl-phenyl)-2,3,4,5,6,7-hexahydro-1H-cyclopentapyrimidin-4-yl]-benzamide], the solubility at 24 h in data set [1] stood at 84 µg/mL (≈ 185 µM). For the same compound, in data set [2], the Qh came out at 12%.

In the case of `CN1C(=O)N(c2cccc(C(F)(F)F)c2)C2=C(C(=O)CC2)[C@H]1c1ccc(C#N)cc1CNC(C)(C)C` [Example 24, 3-(tert-Butylamino-methyl)-4-[(R)-3-methyl-2,5-dioxo-1-(3-trifluoromethyl-phenyl)-2,3,4,5,6,7-hexahydro-1H-cyclopentapyrimidin-4-yl]-benzonitrile], in data set [1], the solubility at 24 h stood at 48 µg/mL (≈ 96.7 µM). The compound further gave a Qh in data set [2] of 10%.
